Results as given in patent US12679807B2 (MERCK SHARP & DOHME LLC, priority 2020, dated 2026).

Molecular target: T1, GCS enzyme contained within Golgi preparations isolated from human A375 malignant melanoma skin cells (Homo sapiens, UniProt Q16739)
T1 construct: endogenous levels of GCS enzyme contained within Golgi preparations isolated from human A375 malignant melanoma skin cells; endogenous in cells; host or cells: A375 human malignant melanoma cells (crude Golgi preparation)
T1 sequence (Q16739 1-394): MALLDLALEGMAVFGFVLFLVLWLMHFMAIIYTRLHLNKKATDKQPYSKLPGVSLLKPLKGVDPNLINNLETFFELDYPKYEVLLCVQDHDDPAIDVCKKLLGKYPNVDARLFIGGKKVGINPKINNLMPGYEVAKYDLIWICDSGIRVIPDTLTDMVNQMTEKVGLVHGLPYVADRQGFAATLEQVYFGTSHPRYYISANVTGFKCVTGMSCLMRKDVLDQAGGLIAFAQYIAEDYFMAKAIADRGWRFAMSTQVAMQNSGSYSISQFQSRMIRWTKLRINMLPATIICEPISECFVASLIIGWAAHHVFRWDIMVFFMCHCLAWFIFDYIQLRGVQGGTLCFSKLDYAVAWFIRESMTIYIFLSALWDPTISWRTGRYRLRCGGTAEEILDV
Test: UDP-Glo glucosylceramide synthase biochemical assay
Conditions: crude Golgi preparation from A375 cells; C6 ceramide and UDP-glucose substrates; 20 h incubation at room temperature; UDP detected by luminescence
Method in brief: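 Endogenous enzyme in A375 Golgi preparations (1.5 μg total protein) was preincubated 30 min with compound, then reacted 20 h at room temperature with UDP-glucose and ceramide.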

SMILES | EC50 [nM]
Cc1cc2c(cnn2C)cc1-c1cccc2c1C(=O)N([C@H](C1CC1)C(C)(C)O)C2 [Compound 87, (R)-2-(1-cyclopropyl-2-hydroxy-2-methylpropyl)-7-(1,6-dimethyl-1H-indazol-5-yl)isoindolin-1-one] | 9.5
Cc1nnc(-c2ccc(-c3cccc4c3C(=O)N([C@H](C3CC3)C(C)(C)O)C4)cc2C)o1 [Compound 71, (R)-2-(1-cyclopropy1-2-hydroxy-2-methylpropyl)-7-(3-methyl-4-(5-methyl-1,3,4-oxadiazol-2-yl)phenyl)isoindolin-1-one] | 0.84
CC(C)(O)C(C1CC1)N1Cc2cc(F)cc(-c3ccccc3OCC(F)(F)F)c2C1=O (single isomer, unassigned) [Compound 23, (R or S)-2-(1-cyclopropyl-2-hydroxy-2-methylpropyl)-5-fluoro-7-(2-(2,2,2-trifluoroethoxy)phenyl) isoindolin-1-one] | 0.41
CC(C)(O)[C@@H](C1CC1)N1Cc2cccc(-c3cccc(-c4ncon4)c3)c2C1=O [Compound 82, (R)-7-(3-(1,2,4-oxadiazol-3-yl)phenyl)-2-(1-cyclopropyl-2-hydroxy-2-methylpropyl)isoindolin-1-one] | 46
O=C1c2c(cccc2-c2ccccc2OCC(F)(F)F)CN1[C@@H](CO)C1CC1 [Compound 49, (R)-2-(1-cyclopropyl-2-hydroxyethyl)-7-(2-(2,2,2-trifluoroethoxy)phenyl) isoindolin-1-one] | 92
Cc1nnc(-c2cc(F)c(-c3cccc4c3C(=O)N([C@H](C3CC3)C(C)(C)O)C4)cc2C)o1 [Compound 70, (R)-2-(1-cyclopropyl-2-hydroxy-2-methylpropyl)-7-(2-fluoro-5-methyl-4-(5-methyl-1,3,4-oxadiazol-2-yl)phenyl)isoindolin-1-one] | 0.81
O=C(Nc1ccc(O)c2c1C(=O)N(CC1CC1)C2)c1ccnc2c1CCC2 [Compound 149, N-(2-(Cyclopropylmethyl)-7-hydroxy-3-oxoisoindolin-4-yl)-6,7-dihydro-5H-cyclopenta[b]pyridine-4-carboxamide] | 900
Cc1cc(-c2ccc(-c3cc(F)cc4c3C(=O)N([C@H](C3CC3)C(C)(C)O)C4)cc2)on1 [Compound 26, (R)-2-(1-cyclopropyl-2-hydroxy-2-methylpropyl)-5-fluoro-7-(4-(3-methylisoxazol-5-yl)phenyl)isoindolin-1-one] | 1
CC(C)(O)[C@@H](C1CC1)N1Cc2cccc(-c3cccnc3OCC(F)(F)F)c2C1=O [Compound 73, (R)-2-(1-cyclopropyl-2-hydroxy-2-methylpropyl)-7-(2-(2,2,2-trifluoroethoxy)pyridin-3-yl)isoindolin-1-one] | 55
Cc1nnc(-c2ccc(-c3nccc4c3C(=O)N(C(C3CC3)C(C)(C)O)C4)cc2)o1 (single isomer, unassigned) [Compound 28, (R or S)-2-(1-cyclopropyl-2-hydroxy-2-methylpropyl)-4-(4-(5-methyl-1,3,4-oxadiazol-2-yl)phenyl)-1,2-dihydro-3H-pyrrolo[3,4-c]pyridin-3-one] | 540
Cc1nnc(-c2ccc(-c3cc(F)cc4c3C(=O)N([C@H](C3CC3)C(C)(C)O)C4)c(F)c2)o1 [Compound 27, (R)-2-(1-cyclopropyl-2-hydroxy-2-methylpropyl)-5-fluoro-7-(2-fluoro-4-(5-methyl-1,3,4-oxadiazol-2-yl)phenyl)isoindolin-1-one] | 1.4

Now from value to compound:

EC50 [nM] | SMILES
26 | C[C@@H](N1Cc2cccc(NC(=O)c3c(Cl)ccc(F)c3Cl)c2C1=O)C(C)(C)O [Compound 123, (R)-2,6-dichloro-3-fluoro-N-(2-(3-hydroxy-3-methylbutan-2-yl)-3-oxoisoindolin-4-yl)benzamide]
55 | COc1cc(Cl)nc(-c2cccc3c2C(=O)N([C@H](C2CC2)C(C)(C)O)C3)c1 [Compound 93, (R)-7-(6-chloro-4-methoxypyridin-2-yl)-2-(1-cyclopropyl-2-hydroxy-2-methylpropyl)isoindolin-1-one]
49 | Cn1cc2c(C(=O)Nc3cccc4c3C(=O)N(C(C3CC3)C3CC3)C4)cccc2n1 [Compound 133, N-(2-(dicyclopropylmethyl)-3-oxoisoindolin-4-yl)-2-methyl-2H-indazole-4-carboxamide]
2.1 | Cc1ccc(F)c(C(=O)Nc2cncc3c2C(=O)N([C@H](C2CC2)C(C)(C)O)C3)c1Cl [Compound 167, (R)-2-chloro-N-(2-(1-cyclopropyl-2-hydroxy-2-methylpropyl)-1-oxo-2,3-dihydro-1H-pyrrolo[3,4-c]pyridin-7-yl)-6-fluoro-3-methylbenzamide]
8.8 | COc1cnc2cc(-c3cccc4c3C(=O)N([C@H](C3CC3)C(C)(C)O)C4)ccc2n1 [Compound 75, (R)-2-(1-cyclopropyl-2-hydroxy-2-methylpropyl)-7-(2-methoxyquinoxalin-6-yl)isoindolin-1-one]
83 | CC(C)(O)[C@@H](C1CC1)N1Cc2cccc(-c3ccc(-c4cnsc4)cc3)c2C1=O [Compound 95, (R)-2-(1-cyclopropyl-2-hydroxy-2-methylpropyl)-7-(4-(isothiazol-4-yl)phenyl)isoindolin-1-one]
77 | C[C@@H](C1CC1)N1Cc2cccc(NC(=O)c3c(Cl)cnc4c3OCO4)c2C1=O [Compound 137, (S)-6-chloro-N-(2-(1-cyclopropylethyl)-3-oxoisoindolin-4-yl)-[1,3]dioxolo[4,5-b]pyridine-7-carboxamide]
